Measured values published in ChEMBL document CHEMBL5321275, “Discovery, Optimization, and Evaluation of Novel N-(Benzimidazol-5-yl)-1,3,4-thiadiazol-2-amine Analogues as Potent STAT3 Inhibitors for Cancer Treatment” (J Med Chem, 2023).
Converted amounts (≈) assume the structure as drawn. The source made the active and inactive calls. The rule behind the calls is not given here.

Tests used:
[1] = MRT (0 to infinity) in ICR mouse at 50 mg/kg, po measured upto 96 hrs by HPLC-MS/MS analysis; format: ADME, organism-based; conditions: in vivo
[2] = Solubility of compound in water incubated for 10 mins; format: physicochemical
DU-145 [3] = assay: Induction of apoptosis in human DU-145 cells assessed as early apoptotic cells at 5 uM measured after 48 hrs by annexin V-FITC and PI staining based flow cytometry analysis (reference value: 2.5%); format: functional
MDA-MB-231 [4] = assay: Induction of apoptosis in human MDA-MB-231 cells measured after 48 hrs by annexin V-FITC and PI staining based flow cytometry analysis; format: functional, cell-based; conditions: dose <= 10.0 µM
[5] = Antiproliferative activity against human PBMC cells assessed as inhibition of cell growth measured after 96 hrs by MTT assay; format: functional, cell-based
DU-145 [6] = assay: Induction of apoptosis in human DU-145 cells assessed as late apoptotic cells at 5 uM measured after 48 hrs by annexin V-FITC and PI staining based flow cytometry analysis (reference value: 2.0%); format: functional
MDA-MB-231 [7] = assay: Induction of apoptosis in human MDA-MB-231 cells assessed as late apoptotic cells at 5 uM measured after 48 hrs by annexin V-FITC and PI staining based flow cytometry analysis (reference value: 3.1%); format: functional
[8] = AUC (0 to t) in ICR mouse at 5 mg/kg, iv measured upto 96 hrs by HPLC-MS/MS analysis; format: ADME, organism-based; set-up: time < 96 hrs, dose 5 mg/kg, route iv; conditions: in vivo
[9] = Inhibition of IL-6/JAK/STAT3 signalling pathway in HEK-Blue IL-6 cells incubated for 16 hrs by QUANTI-blue assay; format: cell-based; conditions: Homo sapiens, HEK-Blue IL-6, 16 h
[10] = Metabolic stability in mouse liver microsomes assessed as intrinsic clearance in presence of NADPH/UDPGA; format: ADME, Microsome; conditions: read-out: CLH
MDA-MB-231 [11] = assay: Induction of apoptosis in human MDA-MB-231 cells assessed as early apoptotic cells at 1 uM measured after 48 hrs by annexin V-FITC and PI staining based flow cytometry analysis (reference value: 6.7%); format: functional
[12] = target: T1, Signal transducer and activator of transcription 3 (Homo sapiens, UniProt P40763); assay: Inhibition of STAT3 in human DU-145 cells assessed as downregulation of Bcl-2 expression at upto 10 uM measured after 24 hrs; format: cell-based
[13] = Cmax in ICR mouse at 5 mg/kg, iv measured upto 96 hrs by HPLC-MS/MS analysis; format: ADME, organism-based; set-up: dose 5 mg/kg, time < 96 hrs, route iv; conditions: in vivo
MDA-MB-231 [14] = assay: Antiproliferative activity against human MDA-MB-231 cells assessed as inhibition of cell growth measured after 96 hrs by MTT assay; format: functional, cell-based; conditions: MDA-MB-231, 96 h
HCT-116 = assay: Antiproliferative activity against human HCT-116 cells assessed as inhibition of cell growth measured after 96 hrs by MTT assay; format: functional, cell-based; conditions: HCT-116, 96 h
[15] = Toxicity in Balb/c mouse assessed as drug tolerance at 50 mg/kg, ip administered once daily for 16 days; format: organism-based; conditions: in vivo, 384 h, time 16 day
[16] = MRT (0 to t) in ICR mouse at 50 mg/kg, po measured upto 96 hrs by HPLC-MS/MS analysis; format: ADME, organism-based; conditions: in vivo
[17] = target: Tyrosine-protein kinase JAK2 (Homo sapiens) (UniProt O60674); assay: Inhibition of JAK2 phosphorylation in human DU-145 cells at 10 uM measured after 24 hrs by Western blot analysis; format: cell-based
MDA-MB-231 [18] = assay: Induction of apoptosis in human MDA-MB-231 cells assessed as cell apoptotic percentage at 10 uM measured after 48 hrs by annexin V-FITC and PI staining based flow cytometry analysis relative to control; format: functional
[19] = Tmax in ICR mouse at 5 mg/kg, iv measured upto 96 hrs by HPLC-MS/MS analysis; format: ADME, organism-based; conditions: in vivo
[20] = Volume of distribution at steady state in ICR mouse at 50 mg/kg, po measured upto 96 hrs by HPLC-MS/MS analysis; format: ADME, organism-based; conditions: in vivo
[21] = MRT (0 to infinity) in ICR mouse at 5 mg/kg, iv measured upto 96 hrs by HPLC-MS/MS analysis; format: ADME, organism-based; conditions: in vivo
HepG2 = assay: Antiproliferative activity against human HepG2 cells assessed as inhibition of cell growth measured after 96 hrs by MTT assay; format: functional, cell-based; conditions: HepG2, 96 h
DU-145 [22] = assay: Induction of apoptosis in human DU-145 cells assessed as late apoptotic cells at 10 uM measured after 48 hrs by annexin V-FITC and PI staining based flow cytometry analysis (reference value: 2.0%); format: functional
DU-145 [23] = assay: Induction of apoptosis in human DU-145 cells measured after 48 hrs by annexin V-FITC and PI staining based flow cytometry analysis; format: functional, cell-based; conditions: dose <= 10.0 µM
[24] = Drug concentration in ICR mouse plasma at 50 mg/kg, po measured after 2 to 8 hrs; format: ADME, organism-based; conditions: in vivo, time 2-8 hrs
MDA-MB-231 [25] = assay: Induction of apoptosis in human MDA-MB-231 cells assessed as induction of PARP cleavage at upto 10 uM measured after 48 hrs by […]; format: functional, cell-based
MDA-MB-231 [26] = assay: Antiproliferative activity against human MDA-MB-231 cells assessed as inhibition of cell growth at 10 uM measured after 96 hrs by MTT assay relative to control; format: functional
DU-145 [27] = assay: Induction of apoptosis in human DU-145 cells assessed as early apoptotic cells at 1 uM measured after 48 hrs by annexin V-FITC and PI staining based flow cytometry analysis (reference value: 2.5%); format: functional
[28] = AUC (0 to infinity) in ICR mouse at 5 mg/kg, iv measured upto 96 hrs by HPLC-MS/MS analysis; format: ADME, organism-based; set-up: dose 5 mg/kg, time < 96 hrs, route iv; conditions: in vivo
DU-145 [29] = assay: Induction of apoptosis in human DU-145 cells assessed as early apoptotic cells at 10 uM measured after 48 hrs by annexin V-FITC and PI staining based flow cytometry analysis (reference value: 2.5%); format: functional
[30] = target: T1, Signal transducer and activator of transcription 3; assay: Inhibition of STAT3 phosphorylation at Tyr705 residue in human DU-145 cells incubated for 24 hrs by Western blot analysis; format: cell-based; conditions: dose <= 10.0 µM
[31] = target: T1, Signal transducer and activator of transcription 3; assay: Inhibition of STAT3 phosphorylation at Tyr705 residue in human MDA-MB-231 cells incubated for 24 hrs by Western blot analysis; format: cell-based; conditions: dose <= 10.0 µM
DU-145 [32] = assay: Induction of apoptosis in human DU-145 cells assessed as late apoptotic cells at 1 uM measured after 48 hrs by annexin V-FITC and PI staining based flow cytometry analysis (reference value: 2.0%); format: functional
DU-145 [33] = assay: Induction of apoptosis in human DU-145 cells assessed as cell apoptotic percentage at 10 uM measured after 48 hrs by annexin V-FITC and PI staining based flow cytometry analysis relative to control; format: functional
[34] = Volume of distribution at steady state in ICR mouse at 5 mg/kg, iv measured upto 96 hrs by HPLC-MS/MS analysis; format: ADME, organism-based; conditions: in vivo, read-out: Vdss
MDA-MB-231 [35] = assay: Induction of apoptosis in human MDA-MB-231 cells assessed as early apoptotic cells at 10 uM measured after 48 hrs by annexin V-FITC and PI staining based flow cytometry analysis (reference value: 6.7%); format: functional
[36] = Toxicity in Balb/c mouse assessed as effect on kidney at 50 mg/kg by hematoxylin and eosin staining based histopathological analysis; format: organism-based; conditions: in vivo

T1 sequence (P40763 whole entry): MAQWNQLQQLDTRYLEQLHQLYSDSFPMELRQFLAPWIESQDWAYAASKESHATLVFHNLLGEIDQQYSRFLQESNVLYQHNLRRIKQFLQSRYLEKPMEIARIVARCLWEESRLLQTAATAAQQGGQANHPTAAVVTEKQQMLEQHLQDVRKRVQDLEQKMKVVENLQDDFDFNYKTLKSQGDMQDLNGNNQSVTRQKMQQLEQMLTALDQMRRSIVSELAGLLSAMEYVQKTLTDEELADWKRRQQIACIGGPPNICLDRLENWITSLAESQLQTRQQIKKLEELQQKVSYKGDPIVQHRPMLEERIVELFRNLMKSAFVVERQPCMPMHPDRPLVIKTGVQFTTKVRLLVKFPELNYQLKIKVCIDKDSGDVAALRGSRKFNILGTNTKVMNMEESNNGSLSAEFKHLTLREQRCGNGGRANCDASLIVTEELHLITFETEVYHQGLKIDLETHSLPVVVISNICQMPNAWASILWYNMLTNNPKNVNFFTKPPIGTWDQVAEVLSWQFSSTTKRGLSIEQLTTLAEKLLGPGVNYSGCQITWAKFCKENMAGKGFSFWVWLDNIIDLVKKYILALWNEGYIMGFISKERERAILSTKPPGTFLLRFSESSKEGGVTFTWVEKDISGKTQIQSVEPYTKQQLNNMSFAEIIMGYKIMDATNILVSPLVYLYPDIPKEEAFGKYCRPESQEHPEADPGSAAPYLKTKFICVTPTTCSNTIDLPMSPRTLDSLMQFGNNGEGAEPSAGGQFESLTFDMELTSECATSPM
Sequence of Tyrosine-protein kinase JAK2 (Homo sapiens) (O60674 whole entry): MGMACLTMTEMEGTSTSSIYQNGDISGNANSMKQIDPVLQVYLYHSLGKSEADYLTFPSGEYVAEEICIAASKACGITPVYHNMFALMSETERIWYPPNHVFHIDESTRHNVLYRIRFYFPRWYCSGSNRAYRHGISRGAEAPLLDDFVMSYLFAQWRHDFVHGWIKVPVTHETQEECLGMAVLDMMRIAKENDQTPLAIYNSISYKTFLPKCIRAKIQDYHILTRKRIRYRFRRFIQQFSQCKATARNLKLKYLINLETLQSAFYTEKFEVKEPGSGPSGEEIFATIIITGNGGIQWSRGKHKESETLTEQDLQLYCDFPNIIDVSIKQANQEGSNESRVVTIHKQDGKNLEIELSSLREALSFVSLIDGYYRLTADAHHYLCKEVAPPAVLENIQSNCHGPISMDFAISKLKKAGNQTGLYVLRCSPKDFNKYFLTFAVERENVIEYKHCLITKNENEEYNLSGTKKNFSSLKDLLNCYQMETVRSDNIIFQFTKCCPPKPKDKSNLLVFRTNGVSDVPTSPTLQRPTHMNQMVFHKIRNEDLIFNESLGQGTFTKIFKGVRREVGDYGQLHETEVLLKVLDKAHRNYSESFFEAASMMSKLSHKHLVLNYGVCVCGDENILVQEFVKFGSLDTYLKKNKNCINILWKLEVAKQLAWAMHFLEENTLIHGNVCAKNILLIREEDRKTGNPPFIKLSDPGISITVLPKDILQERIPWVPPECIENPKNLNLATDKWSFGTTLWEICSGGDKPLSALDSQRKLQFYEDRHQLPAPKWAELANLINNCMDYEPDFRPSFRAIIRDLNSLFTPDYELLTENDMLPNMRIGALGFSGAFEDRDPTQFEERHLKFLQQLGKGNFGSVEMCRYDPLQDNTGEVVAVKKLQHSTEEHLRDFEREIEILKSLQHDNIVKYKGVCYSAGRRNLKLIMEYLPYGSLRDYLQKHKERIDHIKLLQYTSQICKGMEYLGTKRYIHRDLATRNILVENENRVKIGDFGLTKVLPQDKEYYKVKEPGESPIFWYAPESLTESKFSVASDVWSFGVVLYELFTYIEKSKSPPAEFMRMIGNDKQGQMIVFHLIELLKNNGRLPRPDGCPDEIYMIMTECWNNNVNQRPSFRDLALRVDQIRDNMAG

With `CN1CCN(c2cc3c(cc2Nc2nnc(-c4ccc(C(F)(F)F)cc4)s2)nc(-c2ccc(F)cc2)n3C2CC2)CC1` the MRT inf [1] was 17.3 h, the solubility at 10 min [2] was 1.04 µg/mL (≈ 1.75 µM) and the Activity (DU-145 [3]) was 6.9%. The Activity (MDA-MB-231 [4]) was “Dose-Dependent Effect”, the IC50 [5] was 16300 nM and the Activity (DU-145 [6]) was 13.9%. It also gave an Activity (MDA-MB-231 [7]) of 10.7%, an AUC(0-t) at 96 h [8] of 3430 ng·h/mL and an IC50 [9] of 650 nM. The microsomal CLint [10] was 3.68 µL/min/mg, the Activity (MDA-MB-231 [11]) was 5.9% and the inhibition [12] was “Active”. It also gave a Cmax [13] of 667 ng/mL, an IC50 (MDA-MB-231 [14]) of 3260 nM and an IC50 (HCT-116) of 2190 nM. For the same molecule, the Activity [15] was “Non-Toxic”, the MRT last at 96 h [16] was 17.1 h and the inhibition [17] was “inactive”. For the same molecule, the Activity (MDA-MB-231 [18]) was 79.3%, the Tmax [19] was 3 min and the Vdss [20] was 40.17172 L/kg. The MRT inf [21] was 15.3 h, the IC50 (HepG2) was 1450 nM and the Activity (DU-145 [22]) was 45.6%. The Activity (DU-145 [23]) was “Dose-Dependent Effect”, the Cp [24] was 771 ng/mL and the Activity (MDA-MB-231 [25]) was “Active”. For the same molecule, the inhibition at 10 µM (MDA-MB-231 [26]) was 90.1%, the Activity (DU-145 [27]) was 2.1% and the AUC(0-inf) [28] was 3450 ng·h/mL. For the same molecule, the Activity (DU-145 [29]) was 34%, the inhibition [30] was “Dose-Dependent Effect” and the inhibition [31] was “Dose-Dependent Effect”. It also gave an Activity (DU-145 [32]) of 2.4%, an Activity (DU-145 [33]) of 79.6% and a Vd [34] of 19 L/kg. The Activity (MDA-MB-231 [35]) was 59.2% and the Activity [36] was “Non-Toxic”.
